# Test results taken from ChEMBL document CHEMBL3046521, “Synthesis and antitumor activity of (4-hydroxyphenyl)[5-substituted alkyl/aryl)-2-thioxo-1,3,4-thiadiazol-3-yl]methanone and [(3,4-disubstituted)-1,3-thiazol-2ylidene]-4-hydroxybenzohydrazide” (2011).
# Experiments:
# Assay type in all cases: functional
# [1] = tested on: RXF 393; assay: Cytotoxicity against Homo sapiens (human) RXF393 cells after 48 hr by sulforhodamine B assay; settings: RXF 393, 48 h
# [2] = tested on: SK-MEL-5; assay: Cytotoxicity against Homo sapiens (human) SK-MEL-5 cells after 48 hr by sulforhodamine B assay; settings: SK-MEL-5, 48 h
# [3] = tested on: NCI-H460; assay: Cytotoxicity against Homo sapiens (human) NCI-H460 cells after 48 hr by sulforhodamine B assay; settings: NCI-H460, 48 h
# [4] = tested on: K562; assay: Cytotoxicity against Homo sapiens (human) K562 cells after 48 hr by sulforhodamine B assay; settings: K562, 48 h
# [5] = tested on: SK-MEL-2; assay: Cytotoxicity against Homo sapiens (human) SK-MEL-2 cells after 48 hr by sulforhodamine B assay; settings: SK-MEL-2, 48 h
# [6] = tested on: UO-31; assay: Cytotoxicity against Homo sapiens (human) UO31 cells after 48 hr by sulforhodamine B assay; settings: UO-31, 48 h
# [7] = tested on: ACHN; assay: Cytotoxicity against Homo sapiens (human) ACHN cells after 48 hr by sulforhodamine B assay
# [8] = tested on: MDA-MB-468; assay: Cytotoxicity against Homo sapiens (human) MDA-MB-468 cells after 48 hr by sulforhodamine B assay; settings: MDA-MB-468, 48 h
# [9] = tested on: SNB-75; assay: Cytotoxicity against Homo sapiens (human) SNB75 cells after 48 hr by sulforhodamine B assay; settings: SNB-75, 48 h
# [10] = tested on: IGROV-1; assay: Cytotoxicity against Homo sapiens (human) IGROV1 cells after 48 hr by sulforhodamine B assay; settings: IGROV-1, 48 h
# [11] = tested on: SK-OV-3; assay: Cytotoxicity against Homo sapiens (human) SKOV3 cells after 48 hr by sulforhodamine B assay; settings: SK-OV-3, 48 h
# [12] = tested on: U-251; assay: Cytotoxicity against Homo sapiens (human) U251 cells after 48 hr by sulforhodamine B assay; settings: U-251, 48 h
# [13] = tested on: HCC 2998; assay: Cytotoxicity against Homo sapiens (human) HCC2998 cells after 48 hr by sulforhodamine B assay; settings: HCC 2998, 48 h
# [14] = tested on: NCI-H226; assay: Cytotoxicity against Homo sapiens (human) NCI-H226 cells after 48 hr by sulforhodamine B assay; settings: NCI-H226, 48 h
# [15] = tested on: Hs-578T; assay: Cytotoxicity against Homo sapiens (human) Hs 578T cells after 48 hr by sulforhodamine B assay
# [16] = tested on: DU-145; assay: Cytotoxicity against Homo sapiens (human) DU145 cells after 48 hr by sulforhodamine B assay; settings: DU-145, 48 h
# [17] = tested on: NCI-H23; assay: Cytotoxicity against Homo sapiens (human) NCI-H23 cells after 48 hr by sulforhodamine B assay; settings: NCI-H23, 48 h
# [18] = tested on: HOP-62; assay: Cytotoxicity against Homo sapiens (human) HOP62 cells after 48 hr by sulforhodamine B assay; settings: HOP-62, 48 h
# [19] = tested on: Malme-3M; assay: Cytotoxicity against Homo sapiens (human) MALME-3M cells after 48 hr by sulforhodamine B assay
# [20] = tested on: OVCAR-5; assay: Cytotoxicity against Homo sapiens (human) OVCAR5 cells after 48 hr by sulforhodamine B assay; settings: OVCAR-5, 48 h
# [21] = tested on: OVCAR-3; assay: Cytotoxicity against Homo sapiens (human) OVCAR3 cells after 48 hr by sulforhodamine B assay; settings: OVCAR-3, 48 h
# [22] = tested on: HL-60(TB); assay: Cytotoxicity against Homo sapiens (human) HL-60(TB) cells after 48 hr by sulforhodamine B assay; settings: HL-60, 48 h
# [23] = tested on: MDA-MB-231; assay: Cytotoxicity against Homo sapiens (human) MDA-MB-231 cells after 48 hr by sulforhodamine B assay; settings: MDA-MB-231, 48 h
# [24] = tested on: CCRF-CEM; assay: Cytotoxicity against Homo sapiens (human) CCRF-CEM cells after 48 hr by sulforhodamine B assay
# [25] = tested on: NCI-H522; assay: Cytotoxicity against Homo sapiens (human) NCI-H522 cells after 48 hr by sulforhodamine B assay; settings: NCI-H522, 48 h
# [26] = tested on: SN12C; assay: Cytotoxicity against Homo sapiens (human) SN12C cells after 48 hr by sulforhodamine B assay
# [27] = tested on: COLO 205; assay: Cytotoxicity against Homo sapiens (human) COLO205 cells after 48 hr by sulforhodamine B assay; settings: COLO 205, 48 h
# [28] = tested on: T47D; assay: Cytotoxicity against Homo sapiens (human) T47D cells after 48 hr by sulforhodamine B assay
smiles,measurement,setting,value
Cc1ccc(-c2cs/c(=N\NC(=O)c3ccc(O)cc3)n2-c2c(C)cccc2C)cc1,GI50,[1],38 µM
same,LC50,[1],> 100 µM
same,TGI,[1]; read-out: pTGI (converted),> 100 µM
same,GI50,[2],14.5 µM
same,LC50,[2],61.7 µM
same,TGI,[2]; read-out: pTGI (converted),30.2 µM
same,GI50,[3],14.8 µM
same,LC50,[3],> 100 µM
same,TGI,[3]; read-out: pTGI (converted),72.4 µM
same,GI50,[4],11.5 µM
same,LC50,[4],> 100 µM
same,TGI,[4]; read-out: pTGI (converted),79.4 µM
same,GI50,[5],30.2 µM
same,LC50,[5],> 100 µM
same,TGI,[5]; read-out: pTGI (converted),95.5 µM
same,GI50,[6],9.55 µM
same,LC50,[6],> 100 µM
same,TGI,[6]; read-out: pTGI,> 100 µM
same,GI50,[7],20.9 µM
same,LC50,[7],> 100 µM
same,TGI,[7]; read-out: pTGI (converted),> 100 µM
same,GI50,[8],12 µM
same,LC50,[8],> 100 µM
same,TGI,[8]; read-out: pTGI (converted),> 100 µM
same,GI50,[9],24.5 µM
same,LC50,[9],> 100 µM
same,TGI,[9]; read-out: pTGI (converted),> 100 µM
same,GI50,[10],20 µM
same,LC50,[10],> 100 µM
same,TGI,[10]; read-out: pTGI (converted),> 100 µM
same,GI50,[11],30.9 µM
same,LC50,[11],> 100 µM
same,TGI,[11]; read-out: pTGI (converted),> 100 µM
same,GI50,[12],25.1 µM
same,LC50,[12],> 100 µM
same,TGI,[12]; read-out: pTGI (converted),> 100 µM
same,GI50,[13],15.5 µM
same,LC50,[13],> 100 µM
same,TGI,[13]; read-out: pTGI (converted),43.7 µM
same,GI50,[14],26.3 µM
same,LC50,[14],> 100 µM
same,TGI,[14]; read-out: pTGI (converted),> 100 µM
same,GI50,[15],23.4 µM
same,LC50,[15],> 100 µM
same,TGI,[15]; read-out: pTGI (converted),91.2 µM
same,GI50,[16],28.2 µM
same,LC50,[16],> 100 µM
same,TGI,[16]; read-out: pTGI (converted),> 100 µM
same,GI50,[17],25.7 µM
same,LC50,[17],> 100 µM
same,TGI,[17]; read-out: pTGI (converted),> 100 µM
same,GI50,[18],23.4 µM
same,LC50,[18],> 100 µM
same,TGI,[18]; read-out: pTGI (converted),74.1 µM
same,GI50,[19],22.4 µM
same,LC50,[19],> 100 µM
same,TGI,[19]; read-out: pTGI (converted),85.1 µM
same,GI50,[20],28.2 µM
same,LC50,[20],> 100 µM
same,TGI,[20]; read-out: pTGI (converted),> 100 µM
same,GI50,[21],17.8 µM
same,LC50,[21],> 100 µM
same,TGI,[21]; read-out: pTGI (converted),47.9 µM
same,GI50,[22],11.5 µM
same,CC50,[22]; read-out: pLC50 (the source's name) (converted),> 100 µM
same,TGI,[22]; read-out: pTGI (converted),64.6 µM
same,GI50,[23],18.2 µM
same,LC50,[23],> 100 µM
same,TGI,[23]; read-out: pTGI (converted),> 100 µM
same,GI50,[24],33.1 µM
same,LC50,[24],> 100 µM
same,TGI,[24]; read-out: pTGI,> 100 µM
same,GI50,[25],20.9 µM
same,LC50,[25],> 100 µM
same,TGI,[25]; read-out: pTGI (converted),> 100 µM
same,GI50,[26],25.7 µM
same,LC50,[26],> 100 µM
same,TGI,[26]; read-out: pTGI (converted),> 100 µM
same,GI50,[27],16.6 µM
same,LC50,[27],> 100 µM
same,TGI,[27]; read-out: pTGI (converted),66.1 µM
same,GI50,[28],12.9 µM
same,LC50,[28],> 100 µM
same,TGI,[28]; read-out: pTGI (converted),63.1 µM
